# Source: patent US20190159450A1, “PYRIDINE-BASED COMPOUND INCLUDING ISOXAZOLINE RING AND USE THEREOF AS HERBICIDE” (MOGHU RESEARCH CENTER LTD., priority 2016, published 2019)
# Key:
# Format in all cases: in vivo
# [1] = test system: wheat; assay: Herbicidal activity test, pre-weeds emergence treatment (crop damage); conditions: Table 4, 200 g/ha, assessed 2 to 3 weeks after spraying, scale 0-10 (0: no effect, 10: complete death)
# Protocol: (§1) A rectangular plastic pot with a surface area of 300 cm^2 was filled with sandy loam soil and mixed soil at a ratio of 1:1, and four kinds of weeds including Quamoclit pennata, Abutilon theophrasti Medicus, and Aeschynomene indica, Xanthium strumarium were sown therein. In another pot made in the same way, three kinds of crop seeds including maize, wheat, and rice were sown. The pots were watered and one day later, a medicament was sprayed thereon. The spraying was performed by using a track sprayer (R&D Sprayer, USA) equipped with Teejet 8002EVS (Spraying Systems Co., USA) nozzle, and the spray amount was controlled to be 1000 L/ha. A spray solution was prepared by dissolving the compound of each example or a control material in acetone, and then, adding the same amount of 0.1% (v/v) tween 20 aqueous solution thereto. The spray amount was 200 g/ha. The pots were placed in a greenhouse in which the temperature was maintained at 25° C. to 30° C. during the day and 15° C. to 25° C. during the night, and was regularly watered. After 2 to 3 weeks from the spraying of the compounds or the control material, the efficacy and the damages on each weed and each crop were assessed according to the scale of 0-10 (0: no effect, 10: complete death) scale and the results are shown in Table 3 below.
# (§2) Pots for crops and weeds were prepared in the same manner as the test method illustrated in Table 3, and three kinds of weeds selected from Quamoclit pennata, Abutilon theophrasti Medicus, and Aeschynomene indica, Xanthium strumarium were used.
# [2] = test system: maize; assay: as above; conditions: Table 4, 200 g/ha, assessed 2 to 3 weeks after spraying, scale 0-10 (0: no effect, 10: complete death)
# Protocol: as §1, §2
# [3] = test system: rice; assay: as above; conditions: Table 4, 200 g/ha, assessed 2 to 3 weeks after spraying, scale 0-10 (0: no effect, 10: complete death)
# Protocol: as §1, §2
# [4] = test system: Xanthium strumarium; assay: Herbicidal activity test, post-weeds emergence treatment; conditions: spray amount 50 g/ha for weeds, assessed after 2 to 3 weeks, 0: no effect, 10: complete death, Table 6
# Protocol: as §1
# (§3) Pots for crops and weeds were prepared in the same manner as in Experimental Example 1, and then, when the crops and the weeds were raised up to 2 weeks roughly on a third-leaf stage, the compounds and the control material were sprayed thereon in the same manner as described above. The spray amount was 200 g/ha. After 2 to 3 weeks from the spraying of the test substance or the control substance, the efficacy and the damages on each weed and each crop were assessed according to the scale of 0-10 (0: no effect, 10: complete death) scale.
# as §2, with “5,” for “3,”, “four” for “three”, “used. The spray amount was 200 g/ha for crops and 50 g/ha for weeds.” for “used.”
# [5] = test system: Abutilon theophrasti Medicus; assay: as above; conditions: spray amount 50 g/ha for weeds, assessed after 2 to 3 weeks, 0: no effect, 10: complete death, Table 6
# Protocol: as §1, §3
# as §2, with “5,” for “3,”, “four” for “three”, “used. The spray amount was 200 g/ha for crops and 50 g/ha for weeds.” for “used.”
# [6] = test system: Quamoclit pennata; assay: as above; conditions: spray amount 50 g/ha for weeds, assessed after 2 to 3 weeks, 0: no effect, 10: complete death, Table 6
# Protocol: as §1, §3
# as §2, with “5,” for “3,”, “four” for “three”, “used. The spray amount was 200 g/ha for crops and 50 g/ha for weeds.” for “used.”
# [7] = test system: Aeschynomene indica; assay: as above; conditions: spray amount 50 g/ha for weeds, assessed after 2 to 3 weeks, 0: no effect, 10: complete death, Table 6
# Protocol: as §1, §3
# as §2, with “5,” for “3,”, “four” for “three”, “used. The spray amount was 200 g/ha for crops and 50 g/ha for weeds.” for “used.”
# [8] = test system: wheat; assay: Herbicidal activity test, post-weeds emergence treatment (crop damage); conditions: spray amount 200 g/ha for crops, assessed after 2 to 3 weeks, 0: no effect, 10: complete death, Table 6
# Protocol: as §1, §3
# as §2, with “5,” for “3,”, “four” for “three”, “used. The spray amount was 200 g/ha for crops and 50 g/ha for weeds.” for “used.”
# [9] = test system: maize; assay: as above; conditions: spray amount 200 g/ha for crops, assessed after 2 to 3 weeks, 0: no effect, 10: complete death, Table 6
# Protocol: as §1, §3
# as §2, with “5,” for “3,”, “four” for “three”, “used. The spray amount was 200 g/ha for crops and 50 g/ha for weeds.” for “used.”
# [10] = test system: rice; assay: as above; conditions: spray amount 200 g/ha for crops, assessed after 2 to 3 weeks, 0: no effect, 10: complete death, Table 6
# Protocol: as §1, §3
# as §2, with “5,” for “3,”, “four” for “three”, “used. The spray amount was 200 g/ha for crops and 50 g/ha for weeds.” for “used.”
# [11] = test system: Xanthium strumarium; assay: Herbicidal activity test, pre-weeds emergence treatment; conditions: Table 4, 200 g/ha, assessed 2 to 3 weeks after spraying, scale 0-10 (0: no effect, 10: complete death)
# Protocol: as §1, §2
# [12] = test system: Abutilon theophrasti Medicus; assay: as above; conditions: Table 4, 200 g/ha, assessed 2 to 3 weeks after spraying, scale 0-10 (0: no effect, 10: complete death)
# Protocol: as §1, §2
# [13] = test system: Quamoclit pennata; assay: as above; conditions: Table 4, 200 g/ha, assessed 2 to 3 weeks after spraying, scale 0-10 (0: no effect, 10: complete death)
# Protocol: as §1, §2
# [14] = test system: Aeschynomene indica; assay: as above; conditions: Table 4, 200 g/ha, assessed 2 to 3 weeks after spraying, scale 0-10 (0: no effect, 10: complete death)
# Protocol: as §1, §2
SMILES,"PRE TRZAW (wheat), damage score [1]","PRE ZEAMX (maize), damage score [2]","PRE ORYSA (rice), damage score [3]","XANST (Xanthium strumarium) herbicidal efficacy, scale of 0-10 [4]","ABUTH (Abutilon theophrasti Medicus) herbicidal efficacy, scale of 0-10 [5]","IPOAN (Quamoclit pennata) herbicidal efficacy, scale of 0-10 [6]","AESIN (Aeschynomene indica) herbicidal efficacy, scale of 0-10 [7]","TRZAW (wheat) damage, scale of 0-10 [8]","ZEAMX (maize) damage, scale of 0-10 [9]","ORYSA (rice) damage, scale of 0-10 [10]","PRE XANST (Xanthium strumarium), efficacy score [11]","PRE ABUTH (Abutilon theophrasti Medicus), efficacy score [12]","PRE IPOAN (Quamoclit pennata), efficacy score [13]","PRE AESIN (Aeschynomene indica), efficacy score [14]"
"COC(=O)c1nc(C2(C)CC(Br)=NO2)cc(N)c1Cl (stereo not drawn) [Compound 53, methyl 4-amino-3-chloro-6-(3-bromo-5-methyl-4,5-dihydroisoxazol-5-yl)picolinate]",0,0,0,9,6,4,9,1,0,0,9,10,6,10
"CC1(c2cc(N)c(Cl)c(C(=O)O)n2)CC(Br)=NO1 (stereo not drawn) [Compound 54, 4-amino-3-chloro-6-(3-bromo-5-methyl-4,5-dihydroisoxazol-5-yl)picolinic acid]",0,0,0,8,4,5,6,0,0,0,8,10,5,10
"CCOC(=O)c1nc(C2CC(Br)=NO2)cc(N)c1Cl (stereo not drawn) [Compound 73, ethyl 4-amino-6-(3-bromo-4,5-dihydroisoxazol-5-yl)-3-chloropicolinate]",0,0,0,9,6,4,9,1,0,0,9,10,6,10
"CC(C)OC(=O)c1nc(C2CC(Br)=NO2)cc(N)c1Cl (stereo not drawn) [Compound 83, isopropyl 4-amino-6-(3-bromo-4,5-dihydroisoxazol-5-yl)-3-chloropicolinate]",0,0,0,7,4,5,5,0,0,0,2,0,5,5
"CC(C)COC(=O)c1nc(C2CC(Br)=NO2)cc(N)c1Cl (stereo not drawn) [Compound 84, isobutyl 4-amino-6-(3-bromo-4,5-dihydroisoxazol-5-yl)-3-chloropicolinate]",0,0,1,10,6,6,9,0,0,0,10,4,5,10
"Nc1cc(C2CC(Br)=NO2)nc(C(=O)Oc2ccccc2)c1Cl (stereo not drawn) [Compound 85, phenyl 4-amino-3-chloro-6-(3-bromo-4,5-dihydroisoxazol-5-yl)picolinate]",0,0,0,10,5,5,9,0,0,0,10,8,6,10
"Nc1cc(C2CC(Br)=NO2)nc(C(=O)OCc2ccccc2)c1Cl (stereo not drawn) [Compound 86, benzyl 4-amino-3-chloro-6-(3-bromo-4,5-dihydroisoxazol-5-yl)picolinate]",0,0,0,8,4,5,2,0,0,3,2,3,3,6
"Cc1ccc(COC(=O)c2nc(C3CC(Br)=NO3)cc(N)c2Cl)cc1 (stereo not drawn) [Compound 87, 4-methylbenzyl 4-amino-6-(3-bromo-4,5-dihydroisoxazol-5-yl)-3-chloropicolinate]",0,0,0,10,6,4,9,0,1,0,5,6,7,9
"Nc1cc(C2CC(Br)=NO2)nc(C(=O)OCc2ccc(C(F)(F)F)cc2)c1Cl (stereo not drawn) [Compound 88, 4-trifluoromethylbenzyl 4-amino-6-(3-bromo-4,5-dihydroisoxazol-5-yl)-3-chloropicolinate]",0,0,0,10,5,6,8,0,0,0,9,5,3,10
